Tests used:
Test in all cases: KINOMEscan kinase binding assay (Eurofins/DiscoveRx), % Ctrl
kinases [1] = molecular target: T1, kinases (Homo sapiens, UniProt P00533, DEL746-750)
T1 construct: purchased Eurofins/DiscoveRx; host or cells: E. coli BL21-derived host (T7 phage display) for most kinases; HEK-293 for the rest
Outline: (§1)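 Read-out is qPCR of kinase eluted from ligand-coated streptavidin beads after 1 h room-temperature competition with test compound. Values are % Ctrl at the tested concentration, lower meaning tighter binding.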

kinases [2] = molecular target: T2, kinases (Homo sapiens, UniProt P00519, Q252H)
T2 construct: purchased Eurofins/DiscoveRx; host or cells: E. coli BL21-derived host (T7 phage display) for most kinases; HEK-293 for the rest
Outline: as §1

kinases [3] = molecular target: T3, kinases (Homo sapiens, UniProt P00533, G719S)
T3 construct: purchased Eurofins/DiscoveRx; host or cells: E. coli BL21-derived host (T7 phage display) for most kinases; HEK-293 for the rest
Outline: as §1

kinases [4] = molecular target: T4, kinases (Homo sapiens, UniProt P17948)
T4 construct: purchased Eurofins/DiscoveRx; host or cells: E. coli BL21-derived host (T7 phage display) for most kinases; HEK-293 for the rest
Outline: as §1

kinases [5] = molecular target: T5, kinases (Homo sapiens, UniProt P35916)
T5 construct: purchased Eurofins/DiscoveRx; host or cells: E. coli BL21-derived host (T7 phage display) for most kinases; HEK-293 for the rest
Outline: as §1

kinases [6] = system: kinases
Outline: as §1

kinases [7] = molecular target: T6, kinases (Homo sapiens, UniProt P00533, L858R)
T6 construct: purchased Eurofins/DiscoveRx; host or cells: E. coli BL21-derived host (T7 phage display) for most kinases; HEK-293 for the rest
Outline: as §1

[8] = target EGFR(E746-A750del); 1 μM
[9] = target ABL1(Q252H)-nonphosphorylated; 1 μM
[10] = target ABL1(Q252H)-phosphorylated; 1 μM
[11] = target EGFR(L747-E749del, A750P); 1 μM
[12] = target EGFR(L747-S752del, P753S); 1 μM
[13] = target EGFR(L747-T751del, Sins); 1 μM
[14] = 1 μM; target EGFR(E746-A750del)
[15] = 1 μM; target ABL1(Q252H)-nonphosphorylated
[16] = 1 μM; target ABL1(Q252H)-phosphorylated
[17] = 1 μM; target EGFR(L747-E749del, A750P)
[18] = 1 μM; target EGFR(L747-S752del, P753S)
[19] = 1 μM; target EGFR(L747-T751del, Sins)
[20] = 1 μM; ABL1(Q252H)-nonphosphorylated
[21] = 1 μM; ABL1(Q252H)-phosphorylated
[22] = 1 μM; EGFR(L747-E749del, A750P)
[23] = 1 μM; EGFR(L747-S752del, P753S)

T4 sequence (P17948 27-1338): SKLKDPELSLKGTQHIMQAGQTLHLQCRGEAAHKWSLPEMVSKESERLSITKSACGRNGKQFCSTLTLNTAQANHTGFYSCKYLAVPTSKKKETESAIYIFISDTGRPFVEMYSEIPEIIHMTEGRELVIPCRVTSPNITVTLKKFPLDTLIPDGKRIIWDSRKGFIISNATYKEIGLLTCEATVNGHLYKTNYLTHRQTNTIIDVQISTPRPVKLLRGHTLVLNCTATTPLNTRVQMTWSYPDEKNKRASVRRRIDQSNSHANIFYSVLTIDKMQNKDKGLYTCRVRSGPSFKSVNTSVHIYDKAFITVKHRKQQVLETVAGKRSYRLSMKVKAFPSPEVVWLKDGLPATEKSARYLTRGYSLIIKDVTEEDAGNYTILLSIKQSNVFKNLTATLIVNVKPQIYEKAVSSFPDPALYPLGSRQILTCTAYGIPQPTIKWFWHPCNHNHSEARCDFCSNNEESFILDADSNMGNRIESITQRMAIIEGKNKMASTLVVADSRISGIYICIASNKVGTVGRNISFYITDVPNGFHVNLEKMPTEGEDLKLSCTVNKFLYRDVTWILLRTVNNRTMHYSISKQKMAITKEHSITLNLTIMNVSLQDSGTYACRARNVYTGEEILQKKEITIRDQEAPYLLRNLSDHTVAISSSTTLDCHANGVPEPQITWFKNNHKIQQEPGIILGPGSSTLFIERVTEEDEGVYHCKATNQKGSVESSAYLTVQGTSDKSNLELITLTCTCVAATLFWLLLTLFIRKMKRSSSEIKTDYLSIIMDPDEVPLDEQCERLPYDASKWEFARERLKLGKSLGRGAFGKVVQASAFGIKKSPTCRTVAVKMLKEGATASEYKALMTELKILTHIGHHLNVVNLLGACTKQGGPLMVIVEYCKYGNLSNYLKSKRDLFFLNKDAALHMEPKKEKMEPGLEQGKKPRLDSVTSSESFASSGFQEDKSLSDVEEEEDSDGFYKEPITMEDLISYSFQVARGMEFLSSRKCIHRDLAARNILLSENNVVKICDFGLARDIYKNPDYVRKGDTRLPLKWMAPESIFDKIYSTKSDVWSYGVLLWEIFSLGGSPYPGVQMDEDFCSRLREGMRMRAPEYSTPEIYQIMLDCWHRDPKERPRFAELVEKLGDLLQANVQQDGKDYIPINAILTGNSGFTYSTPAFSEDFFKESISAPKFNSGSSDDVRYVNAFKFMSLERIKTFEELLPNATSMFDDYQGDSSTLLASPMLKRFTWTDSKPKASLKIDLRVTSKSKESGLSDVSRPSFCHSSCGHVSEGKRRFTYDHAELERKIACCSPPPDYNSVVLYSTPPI
T5 sequence (P35916 25-1363): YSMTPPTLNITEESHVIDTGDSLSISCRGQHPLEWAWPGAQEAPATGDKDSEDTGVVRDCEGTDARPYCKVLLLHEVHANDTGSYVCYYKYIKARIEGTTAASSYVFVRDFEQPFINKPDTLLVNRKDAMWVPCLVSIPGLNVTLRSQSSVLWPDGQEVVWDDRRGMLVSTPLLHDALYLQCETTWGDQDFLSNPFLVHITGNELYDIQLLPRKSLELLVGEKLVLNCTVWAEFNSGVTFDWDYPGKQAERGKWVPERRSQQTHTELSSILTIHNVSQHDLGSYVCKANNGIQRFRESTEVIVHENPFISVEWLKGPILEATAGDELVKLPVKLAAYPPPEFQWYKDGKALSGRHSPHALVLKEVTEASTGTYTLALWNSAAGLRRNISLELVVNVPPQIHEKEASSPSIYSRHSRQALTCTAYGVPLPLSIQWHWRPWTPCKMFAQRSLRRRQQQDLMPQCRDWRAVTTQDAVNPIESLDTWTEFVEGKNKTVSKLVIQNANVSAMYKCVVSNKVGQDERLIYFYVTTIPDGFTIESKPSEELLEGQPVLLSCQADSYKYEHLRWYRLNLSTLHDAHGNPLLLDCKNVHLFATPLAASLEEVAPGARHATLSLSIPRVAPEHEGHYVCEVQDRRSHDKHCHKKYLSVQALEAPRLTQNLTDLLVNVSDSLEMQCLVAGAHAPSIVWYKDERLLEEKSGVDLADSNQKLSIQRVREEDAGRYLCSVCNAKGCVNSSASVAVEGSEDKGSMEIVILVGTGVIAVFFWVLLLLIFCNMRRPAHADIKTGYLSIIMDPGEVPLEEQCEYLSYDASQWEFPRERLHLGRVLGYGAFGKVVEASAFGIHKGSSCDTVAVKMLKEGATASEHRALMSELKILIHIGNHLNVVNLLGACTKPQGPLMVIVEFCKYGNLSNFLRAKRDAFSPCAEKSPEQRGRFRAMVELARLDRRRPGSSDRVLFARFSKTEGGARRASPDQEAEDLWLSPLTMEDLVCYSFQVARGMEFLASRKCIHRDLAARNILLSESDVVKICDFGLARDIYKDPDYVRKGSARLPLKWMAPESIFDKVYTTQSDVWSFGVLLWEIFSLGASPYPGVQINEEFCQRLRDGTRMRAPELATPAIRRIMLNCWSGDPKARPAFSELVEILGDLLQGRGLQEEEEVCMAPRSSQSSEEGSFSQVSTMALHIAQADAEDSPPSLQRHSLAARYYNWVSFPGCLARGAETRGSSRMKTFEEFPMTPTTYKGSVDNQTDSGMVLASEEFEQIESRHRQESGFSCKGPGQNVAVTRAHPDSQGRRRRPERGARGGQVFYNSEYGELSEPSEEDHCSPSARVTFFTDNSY

| SMILES | % Ctrl, EGFR(E746-A750del) (kinases [1]; [8]) [% Ctrl] | % Ctrl, ABL1(Q252H)-nonphosphorylated (kinases [2]; [9]) [% Ctrl] | % Ctrl, ABL1(Q252H)-phosphorylated (kinases [2]; [10]) [% Ctrl] | % Ctrl, EGFR(G719S) (kinases [3]; target EGFR(G719S); 1 μM) [% Ctrl] | % Ctrl, FLT1 (kinases [4]; target FLT1; 1 μM) [% Ctrl] | % Ctrl, FLT4 (kinases [5]; target FLT4; 1 μM) [% Ctrl] | % Ctrl, EGFR(L747-E749del, A750P) (kinases [6]; [11]) [% Ctrl] | % Ctrl, EGFR(L747-S752del, P753S) (kinases [6]; [12]) [% Ctrl] | % Ctrl, EGFR(L747-T751del, Sins) (kinases [6]; [13]) [% Ctrl] | % Ctrl, FLT3(ITD) (kinases [6]; target FLT3(ITD); 1 μM) [% Ctrl] | % Ctrl, FLT3(ITD, D835V) (kinases [6]; target FLT3(ITD, D835V); 1 μM) [% Ctrl] | % Ctrl, FLT3(ITD, F691L) (kinases [6]; target FLT3(ITD, F691L); 1 μM) [% Ctrl] | % Ctrl, EGFR(L858R) (kinases [7]; target EGFR(L858R); 1 μM) [% Ctrl] | % Ctrl, EGFR(E746-A750del) (kinases [1]; 1 μM; EGFR(E746-A750del)) [% Ctrl] | % Ctrl, ABL1(Q252H)-nonphosphorylated (kinases [2]; [20]) [% Ctrl] | % Ctrl, ABL1(Q252H)-phosphorylated (kinases [2]; [21]) [% Ctrl] | % Ctrl, EGFR(G719S) (kinases [3]; 1 μM; EGFR(G719S)) [% Ctrl] | % Ctrl, FLT1 (kinases [4]; 1 μM; FLT1) [% Ctrl] | % Ctrl, FLT4 (kinases [5]; 1 μM; FLT4) [% Ctrl] | % Ctrl, EGFR(L747-E749del, A750P) (kinases [6]; [22]) [% Ctrl] | other results |
| --- | --- | --- | --- | --- | --- | --- | --- | --- | --- | --- | --- | --- | --- | --- | --- | --- | --- | --- | --- | --- | --- |
| Cc1cc2c([nH]1)/C=C1\C(=O)Nc3cnc(cc31)-c1cn[nH]c1CNCCN(C)C2=O [Ex. 55, [3a(4)Z]-6,9-dimethyl-9,10,11,12,13,14-hexahydro-17,1-(azenometheno)pyrazolo[4,3-m]dipyrrolo[3,2-f:3′,4′-i][1,4]diazacyclopentadecine-3,8(2,5H)-dione] | 74 | 2.8 | 1.7 | 67 | 62 | 31 | 82 | 56 | 66 | 0.3 | 1.2 | 0.1 | 88 |  |  |  |  |  |  |  |  |
| CN1CCOc2cc3c(cc2Cl)NC(=O)/C3=C\c2[nH]ccc2C(=O)N(C)CC1 [Ex. 164, [16a(17)Z]-19-chloro-2,5,8-trimethyl-5,6,7,8,9,10-hexahydro-12,14-(ethanediylidene)dipyrrolo[3,2-i:3′,4′-l][1,4,7]oxadiazacyclopentadecine-4,16(1H,15H)-dione] |  |  |  |  |  |  |  |  |  |  |  |  |  |  |  |  |  |  |  |  | % Ctrl, EGFR(E746-A750del) (kinases [1]; [14]): 18 % Ctrl; % Ctrl, ABL1(Q252H)-nonphosphorylated (kinases [2]; [15]): 0.1 % Ctrl; % Ctrl, ABL1(Q252H)-phosphorylated (kinases [2]; [16]): 0 % Ctrl; % Ctrl, EGFR(G719S) (kinases [3]; 1 μM; target EGFR(G719S)): 74 % Ctrl; % Ctrl, FLT1 (kinases [4]; 1 μM; target FLT1): 13 % Ctrl; % Ctrl, FLT4 (kinases [5]; 1 μM; target FLT4): 0.2 % Ctrl; % Ctrl, EGFR(L747-E749del, A750P) (kinases [6]; [17]): 19 % Ctrl; % Ctrl, EGFR(L747-S752del, P753S) (kinases [6]; [18]): 47 % Ctrl; % Ctrl, EGFR(L747-T751del, Sins) (kinases [6]; [19]): 45 % Ctrl; % Ctrl, FLT3(ITD) (kinases [6]; 1 μM; target FLT3(ITD)): 0.9 % Ctrl; % Ctrl, FLT3(ITD, D835V) (kinases [6]; 1 μM; target FLT3(ITD, D835V)): 0.3 % Ctrl; % Ctrl, FLT3(ITD, F691L) (kinases [6]; 1 μM; target FLT3(ITD, F691L)): 1 % Ctrl; % Ctrl, EGFR(L858R) (kinases [7]; 1 μM; target EGFR(L858R)): 45 % Ctrl |
| Cc1cc2c([nH]1)/C=C1\C(=O)Nc3ccc(nc31)-c1ccccc1OCCCNC2=O [Ex.22, [3a(4)Z]-6-methyl-9,10,11,12-tetrahydro-1,18-(ethanediylidene)dipyrrolo[3,2-g:3′,4′-j][1,5,12]benzoxadiazacyclopentadecine-3,8(2H,5H)-dione] |  |  |  |  |  |  |  |  |  |  |  |  |  | 97 | 87 | 74 | 95 | 100 | 92 | 73 | % Ctrl, EGFR(L747-S752del, P753S) (kinases [6]; [23]): 95 % Ctrl; % Ctrl, EGFR(L747-T751del, Sins) (kinases [6]; 1 μM; EGFR(L747-T751del, Sins)): 81 % Ctrl; % Ctrl, FLT3(ITD) (kinases [6]; 1 μM; FLT3(ITD)): 100 % Ctrl; % Ctrl, FLT3(ITD, D835V) (kinases [6]; 1 μM; FLT3(ITD, D835V)): 71 % Ctrl; % Ctrl, FLT3(ITD, F691L) (kinases [6]; 1 μM; FLT3(ITD, F691L)): 100 % Ctrl; % Ctrl, EGFR(L858R) (kinases [7]; 1 μM; EGFR(L858R)): 67 % Ctrl |
| Cc1cc2c([nH]1)/C=C1\C(=O)Nc3ccc(cc31)-c1cnn(C)c1CNCCN(C)C2=O [Ex. 125, [3a(4)Z]-6,9,14-trimethyl-9,10,11,12,13,14-hexahydro-1,17-(ethanediylidene)pyrazolo[4,3-m]dipyrrolo[3,2-f:3′,4′-i][1,4]diazacyclopentadecine-3,8(2H,5H)-dione] |  |  |  |  |  |  |  |  |  |  |  |  |  | 20 | 0 | 0.05 | 88 | 11 | 0.11 | 22 | % Ctrl, EGFR(L747-S752del, P753S) (kinases [6]; [23]): 48 % Ctrl; % Ctrl, EGFR(L747-T751del, Sins) (kinases [6]; 1 μM; EGFR(L747-T751del, Sins)): 54 % Ctrl; % Ctrl, FLT3(ITD) (kinases [6]; 1 μM; FLT3(ITD)): 0 % Ctrl; % Ctrl, FLT3(ITD, D835V) (kinases [6]; 1 μM; FLT3(ITD, D835V)): 0 % Ctrl; % Ctrl, FLT3(ITD, F691L) (kinases [6]; 1 μM; FLT3(ITD, F691L)): 0 % Ctrl; % Ctrl, EGFR(L858R) (kinases [7]; 1 μM; EGFR(L858R)): 48 % Ctrl |
| CN1CCSCCOc2cc3c(cc2Cl)NC(=O)/C3=C\c2[nH]ccc2C1=O [Ex. 153] | 56 | 1.8 | 7.9 | 45 | 3.5 | 11 | 85 | 57 | 38 | 0.5 | 0.5 | 0.5 | 86 |  |  |  |  |  |  |  |  |
| Cc1cc2c([nH]1)/C=C1\C(=O)Nc3cc(Cl)c(cc31)OCCO[C@@H](C(=O)N1CCN(C)CC1)CN(C)C2=O [Ex. 138, [7R,16a(17)Z]-19-chloro-2,5-dimethyl-7-(4-methylpipearazine-1-carbonyl)-6,7,9,10-tetrahydro-1H-12,14-(ethanediylidene)dipyrrolo[3,2-i:3′,4′-l][1,4,7]dioxazacyclopentadecine-4,16(5H,15H)-dione] | 78 | 100 | 98 | 95 | 96 | 97 | 100 | 61 | 96 | 73 | 24 | 49 | 78 |  |  |  |  |  |  |  |  |
| Cc1cc2c([nH]1)/C=C1\C(=O)Nc3ccc(cc31)-c1cnn(C)c1OCCCN(C)C2=O [Ex. 166, [3a(4)Z]-9,14-dimethyl-9,10,11,12-tetrahydro-14H-1,17-(ethanediylidene)pyrazolo[4,3-n]dipyrrolo[3,2-g:3′,4′-j][1,5]oxazacyclopentadecine-3,8(2H,5H)-dione] |  |  |  |  |  |  |  |  |  |  |  |  |  |  |  |  |  |  |  |  | % Ctrl, EGFR(E746-A750del) (kinases [1]; [14]): 84 % Ctrl; % Ctrl, ABL1(Q252H)-nonphosphorylated (kinases [2]; [15]): 2.6 % Ctrl; % Ctrl, ABL1(Q252H)-phosphorylated (kinases [2]; [16]): 3.8 % Ctrl; % Ctrl, EGFR(G719S) (kinases [3]; 1 μM; target EGFR(G719S)): 99 % Ctrl; % Ctrl, FLT1 (kinases [4]; 1 μM; target FLT1): 79 % Ctrl; % Ctrl, FLT4 (kinases [5]; 1 μM; target FLT4): 49 % Ctrl; % Ctrl, EGFR(L747-E749del, A750P) (kinases [6]; [17]): 62 % Ctrl; % Ctrl, EGFR(L747-S752del, P753S) (kinases [6]; [18]): 98 % Ctrl; % Ctrl, EGFR(L747-T751del, Sins) (kinases [6]; [19]): 90 % Ctrl; % Ctrl, FLT3(ITD) (kinases [6]; 1 μM; target FLT3(ITD)): 0.3 % Ctrl; % Ctrl, FLT3(ITD, D835V) (kinases [6]; 1 μM; target FLT3(ITD, D835V)): 0.6 % Ctrl; % Ctrl, FLT3(ITD, F691L) (kinases [6]; 1 μM; target FLT3(ITD, F691L)): 0 % Ctrl; % Ctrl, EGFR(L858R) (kinases [7]; 1 μM; target EGFR(L858R)): 85 % Ctrl |
| Cc1cc2c([nH]1)/C=C1\C(=O)Nc3ccc(cc31)-c1ccnn1CCOCCNC2=O [Ex.39, [19a(20)Z]-2-methyl-6,7,9,10-tetrahydro-1H-15,17-(ethanediylidene)pyrazolo[1,5-d]dipyrrolo[3,4-h:2′,3′-k][1,4,14]oxadiazacyclohexadecine-4,19(5H,18H)-dione] |  |  |  |  |  |  |  |  |  |  |  |  |  | 69 | 84 | 93 | 77 | 95 | 98 | 68 | % Ctrl, EGFR(L747-S752del, P753S) (kinases [6]; [23]): 66 % Ctrl; % Ctrl, EGFR(L747-T751del, Sins) (kinases [6]; 1 μM; EGFR(L747-T751del, Sins)): 60 % Ctrl; % Ctrl, FLT3(ITD) (kinases [6]; 1 μM; FLT3(ITD)): 89 % Ctrl; % Ctrl, FLT3(ITD, D835V) (kinases [6]; 1 μM; FLT3(ITD, D835V)): 17 % Ctrl; % Ctrl, FLT3(ITD, F691L) (kinases [6]; 1 μM; FLT3(ITD, F691L)): 27 % Ctrl; % Ctrl, EGFR(L858R) (kinases [7]; 1 μM; EGFR(L858R)): 64 % Ctrl |

Reference: patent publication US20230257396A1, “MACROCYCLES AND THEIR USE” (BLOSSOMHILL THERAPEUTICS, INC., priority 2020, published 2023)
